# Assay results: patent publication US20130337028A1, “BIOMIMETIC PEPTIDES FOR BONE AUGMENTATION” (NANOVIS, INC., priority 2010, published 2013)
# How the values were obtained:
# [1] = test system: Human fetal osteoblasts (hFOB, CRL-11372, ATCC); assay: Cell adhesion testing; format: cell-based; settings: 4 h culture, seeded at 3500 cells/cm^2
# Protocol: (§1) Human fetal osteoblasts (hFOB, CRL-11372, ATCC) of population numbers 7-11 were cultured in Dulbecco's Modified Eagle's Medium (DMEM, GIBCO) supplemented with 10% fetal bovine serum (FBS, Hyclone) and 1% penicillin/streptomycin (P/S, Hyclone) under standard cell culture conditions (that is, a humidified, 5% CO2/95% air environment at 37° C.). Osteoblasts were seeded onto the petri-dish at a density of 3500 cells/cm^2 and were cultured under standard cell culture conditions for 4 h with peptide concentration discussed. After the prescribed time period, non-adherent cells were removed by sequential phosphate buffered saline (PBS) washings. The remaining cells were fixed using 10% normal buffered formaldehyde (Fisher Scientific) for 10 min and 0.1% Triton X-100 (Sigma-Aldrich) for 5 min. Adherent cells were counted in five random fields per substrate under a Zeiss Axiovert 200M fluorescence microscope. Experiments were run in triplicate and repeated three separate times for each substrate.
# [2] = test system: Human fetal osteoblasts (hFOB, CRL-11372, ATCC); assay: Osteoblast proliferation testing (osteoblast density); format: cell-based; settings: after day 3, seeded at 2500 cells/cm^2, FIG. 2
# Protocol: as §1
# For osteoblast proliferation studies, similar to the above procedures, osteoblasts were seeded on petri dish at 2500 cells/cm^2 with peptides and cultured for 1, 3 days. After the prescribed time periods, adherent cells were fixed, stained and counted under the fluorescence microscope as described above. All cellular experiments were run in triplicate and repeated at least three times for each substrate.
# osteoblasts [3] = assay: Cell function tests, overall osteoblast function; format: cell-based, human; settings: summary of total protein, ALP and calcium tests
# Protocol: (§2) Total intracellular protein content of osteoblasts is extremely important since it is the indication of healthy growth and normal cell response. Thus, the amount of protein produced by cells were measured up to 3 weeks of culture after providing complete media. In order to release the intracellular protein, the adhered cells on the substrates were lysed in DI water using a standard four cycle freeze-thaw method. The resulting lysate solution was then used for analysis. The total protein content were determined by a BCA (bicinchoninic acid) assay kit (Pierce) and the absorbance of the solution were measured using a spectrophotometer at a wavelength of 570 nm. The absorbance was then converted to protein content using an albumin standard curve to determine the amount of intracellular protein.
# (§3) The resulting lysate solution obtained by a four cycle freeze-thaw method was used to measure the ALP activity using a colorimetric assay (Teco). The absorbance of the solution was measured using a spectrophotometer at a wavelength of 590 nm. The absorbance was converted to concentration using ALP standard and all the data were normalized with total protein content to account for changes in number of cells present on surface.
# The calcium content was measured up to 3 weeks in culture using a colorimetric assay (Teco) (see FIG. 4). […]
# [4] = test system: critical sized bone defect; assay: Critical sized bone defect model, proximal tibia and distal femur; format: in vivo, Sinclair minipigs; settings: with nPLGA and HRN based scaffolds, 4 and 8 weeks, FIG. 6
# Protocol: A critical sized bone defect model was used in the proximal tibia and distal femur of 12 Sinclair minipigs (Sinclair Research, MO). Time points to be evaluated are 4 weeks and 8 weeks. Four surgical defects (2 tibia and 2 femur) were created on day 0 in all pigs in one limb and on day 28 in all pigs in the opposite limb. Treatments were applied according to predetermined treatment allocations. MRI evaluations of defects were performed at 4 weeks (all limbs) and 8 weeks (initial defects created on day 0). Following euthanasia, defects were evaluated using microCT and histology to measure bone volume fraction within the defects and with mechanical testing to evaluate compressive stiffness and integration with surrounding bone.
# Minipigs were given pre-operative analgesic and antimicrobial drugs immediately prior to anesthesia. Pigs were anesthetized in the Clinical Discovery Laboratory (CDL) using standard swine protocols. One stifle region was aseptically prepared and draped routinely for surgery of the proximal tibia and distal femur. Defects were created in epiphyseal/metaphyseal cancellous bone using an 8 mm drill to a depth of 20 mm. The procedure was repeated in the opposite hind limb at 4 weeks. (Confirmation of the critical defect size in minipigs is to be determined.)
# Minipigs were housed in the animal holding facility room 1094 and monitored post-operatively. […]
# osteoblasts [5] = assay: Total intracellular protein content of osteoblasts (BCA assay); format: cell-based, human; settings: after 7 and 14 days, FIG. 5
# Protocol: as §2
# osteoblasts [6] = assay: Alkaline phosphatase activity of osteoblasts (colorimetric assay); format: cell-based, human; settings: up to 3 weeks, normalized with total protein content, FIG. 3
# Protocol: as §3
# osteoblasts [7] = assay: Calcium content / calcium deposition by osteoblasts (colorimetric assay); format: cell-based, human; settings: after 21 days, normalized with total protein content
# Protocol: The calcium content was measured up to 3 weeks in culture using a colorimetric assay (Teco) (see FIG. 4). After all the lysate was aspirated, the surfaces were soaked overnight in 6 N HCl solution to dissolve the deposited calcium. The calcium solution was then reacted with assay reagents and the absorbance of the solution was measured photometrically at 570 nm. The absorbance was then converted to concentration using calcium standards and all the data were normalized with total protein content to account for changes in the number of cells present on surface.
Substance,osteoblast adhesion to substrates [1],osteoblast density / attachment on peptide coated surfaces [2],osteoblast function (overall) (osteoblasts [3]),new bone growth (histology) [4],total proteins synthesized by osteoblasts (osteoblasts [5]),alkaline phosphatase activity (osteoblasts [6]),calcium deposition (osteoblasts [7])
KRSR (Ac-KRSR-NH2) [reference compound],proved to be crucial for maximal osteoblast adhesion to substrates,increased osteoblast attachment compared to other peptides studied,showed increased osteoblast function,showed new bone growth,,,
KRSRSNVILKKYRN (Ac-KRSRSNVILKKYRN-NH2),,increased osteoblast attachment compared to other peptides studied,showed increased osteoblast function,showed new bone growth,showed the highest value compared to other peptides and the control,superiority,showed highest value compared to other materials studied
SNVILKKYRN,,increased osteoblast attachment compared to other peptides studied,,,,,
